According to patent US10016366B2, “Method of preparing lyophilized powder for injection comprising aloe and Panax pseudo-ginseng” (priority 2013, dated 2018):

How the values were obtained:
[1] = tested on: ovariectomized mice; assay: Viscera index (thymus, spleen, uterus coefficients) of ovariectomized mice; assay type: in vivo, female ICR mice; conditions: 1 mg/kg, one time per day, 14 days, M ± SD
Description: (§1) 3.1 Healthy female ICR mice weighted 20±2 g were anaesthetized by ether and fixed in the abdomen. Bilateral ovaries of the mice were extirpated via back incision below the costal bone. The wounds were stitched and the mice were cultured according to conventional methods. After the wounds were cured, vaginal smear examination was performed, one time per day for five consecutive days, to ensure the ovaries were completely extirpated. The mice in the dioestrum (observations of vaginal smears under microscope found a lot of polynuclear leucocytes and few epithelial cells) in the five consecutive days were qualified mice. 48 mice were randomly divided into 6 groups with each group 8 mice, that is, a model group (be administered with equal volume of normal saline), a diethyl stilbestrol group (1 mg/kg), J01 groups (144 mg/kg, 288 mg/kg), J02 groups (180 mg/kg, 360 mg/kg). Another 6 mice with bilateral ovaries were selected as a control group (be administered with equal volume of normal saline). The mice were administered with corresponding drugs, one time per day, for 14 consecutive days. After one hour from the last injection, blood was sampled from the orbital venous plexus, and centrifuged for 10 min at 3000 rpm. The serum was separated and the E2, LH and FSH values thereof were measured using ELISA method. Thereafter, the abdominal cavity was cut open quickly and thymus, spleen, and uterus were separated and weighed to calculate the coefficients of the thymus, spleen, and uterus.
(§2) The mice were administered with corresponding drugs, 5 mL/kg, one time per day, for 14 consecutive days.
(§3) Viscera index: coefficients of the thymus, spleen, and uterus. Viscera index=organ weight/mice body weight*10. Serum index: E2 (estradiol), LH (luteinizing hormone), FSH (follicle stimulating hormone).
(§4) The difference between groups of the measured data is examined based on ANOVA T-TEST using SPSS10.0.

[2] = tested on: ovariectomized mice; assay: Serum E2, LH and FSH of ovariectomized mice by ELISA; assay type: in vivo, female ICR mice; conditions: 1 mg/kg, one time per day, 14 days, M ± SD
Description: as §1, §2, §3, §4

CC/C(=C(/CC)c1ccc(O)cc1)c1ccc(O)cc1 [Diethylstilbestrol]
Spleen index [1]: 66.67 ± 16.93 mg/10 g
Thymus index [1]: 32.99 ± 8.11 mg/10 g
Uterus index [1]: 62.67 ± 11.89 mg/10 g
E2 (Estrogen) [2]: 113.81 ± 33.85 pg/mL
FSH (Follicle Stimulating Hormone) [2]: 22.54 ± 6.97 ng/mL
LH (luteinizing hormone) [2]: 31.33 ± 4.51 ng/mL
